Measured values as given in ChEMBL document CHEMBL1148912, “New diterpenoids from the marine mangrove Bruguiera gymnorrhiza” (J Nat Prod, 2004).
≈ marks a conversion by molar mass, not a printed value.

Tests used:
[1] = Growth inhibition of mouse L929 cells; format: cell-based
[2] = system: K562; assay: Growth inhibition of human K562 cells; format: functional
[3] = system: HeLa; assay: Cytotoxicity against human HeLa cells; format: functional

Row | SMILES | GI50 [1] [µg/mL] | GI50 [2] [µg/mL] | CC50 [3] [µg/mL]
1 | C[C@@]12CCC[C@@](C)(C=O)[C@H]1CC[C@]13C[C@](O)(CC[C@H]12)[C@](O)(CCl)C3 | 50 (≈ 141 µM) | 29.2 (≈ 82.3 µM) | 38.2 (≈ 108 µM)
2 | COC(=O)[C@]1(C)CCC[C@@]2(C)[C@@H]3CC[C@H]4C[C@]3(CC[C@@H]21)C[C@]4(O)CO | 39.5 (≈ 113 µM) | 27.7 (≈ 79 µM) | 40.5 (≈ 116 µM)
3 | C[C@@]12CCC[C@@](C)(C=O)[C@H]1CC[C@@]13C[C@@H](CC[C@H]12)[C@@](O)(CO)C3 | 50 (≈ 156 µM) | 50 (≈ 156 µM) | 50 (≈ 156 µM)
4 | C=C1C[C@@]23CC[C@@H]4[C@](C)(CO)CCC[C@@]4(C)[C@@H]2CC[C@H]1C3 | 18.2 (≈ 63.1 µM) | 6.8 (≈ 23.6 µM) | 32.8 (≈ 114 µM)
5 | C=C1C[C@]23CC[C@@H]4[C@](C)(CO)CCC[C@@]4(C)[C@@H]2CC[C@@]1(O)C3 | 50 (≈ 164 µM) | 50 (≈ 164 µM) | 50 (≈ 164 µM)
6 | C[C@@]1(CO)CCC[C@]2(C)[C@@H]1CC[C@@]13C[C@H](CO)[C@@H](CC[C@H]12)C3 | 12.8 (≈ 41.8 µM) | 13.6 (≈ 44.4 µM) | 35.7 (≈ 116 µM)
7 | C[C@@]12CCC[C@@](C)(C=O)[C@H]1CC[C@@]13CC(=O)[C@](CO)(CC[C@H]12)C3 | 45.4 (≈ 143 µM) | 50 (≈ 157 µM) | 37.7 (≈ 118 µM)
8 | CC(=O)O[C@H]1C(=O)[C@@]2(C)[C@H]([C@H](OC(=O)c3ccccc3)[C@]3(O)C[C@H](OC(=O)[C@H](O)[C@@H](NC(=O)c4ccccc4)c4ccccc4)C(C)=C1C3(C)C)[C@]1(OC(C)=O)CO[C@@H]1C[C@@H]2O [PACLITAXEL] | 0.1 (≈ 0.117 µM) | 0.01 (≈ 0.0117 µM) | 0.01 (≈ 0.0117 µM)
9 | C[C@@]12CCC[C@@](C)(C(=O)O)[C@H]1CC[C@@]13C[C@H](CO)[C@@H](CC[C@H]12)C3 | 42.4 (≈ 132 µM) | 32.8 (≈ 102 µM) | 43 (≈ 134 µM)
10 | COC(=O)[C@]1(C)CCC[C@@]2(C)C3=CC[C@H]4C[C@]3(CC[C@H]12)C[C@]4(O)CO | 41.9 (≈ 120 µM) | 26.7 (≈ 76.6 µM) | 38.7 (≈ 111 µM)
11 | C=C1C[C@]23CC[C@H]4[C@@](C)(CCC[C@@]4(C)C=O)[C@@H]2CC[C@@]1(O)C3 | 11.5 (≈ 38 µM) | 10.5 (≈ 34.7 µM) | 42.3 (≈ 140 µM)
